Assay results as given in PMC6305410, “High-Throughput Screening for Bacterial Glycosyltransferase Inhibitors” (Frontiers in Cellular and Infection Microbiology, 2018).

Target: T1, NleB1 (Escherichia coli, UniProt Q8XBX8)
T1 construct: GST-EHEC-NleB1 in pET42a (GST/His tagged), expressed in E. coli BL21 (DE3), nickel purified; some tag cleavage noted
Conditions: inhibitor; for % NleB1 inhibition (µM compound) / 10: 10 µM; for % NleB1 inhibition (µM compound) / 20: 20 µM; for % NleB1 inhibition (µM compound) / 40: 40 µM; for % NleB1 inhibition (µM compound) / 80: 80 µM; for % NleB1 inhibition (µM compound) / 160: 160 µM

SMILES	% NleB1 inhibition (µM compound) / 10	% NleB1 inhibition (µM compound) / 20	% NleB1 inhibition (µM compound) / 40	% NleB1 inhibition (µM compound) / 80	% NleB1 inhibition (µM compound) / 160
CCCCCCCCN1[C@@H](CC(=O)OC)c2ccc(/C=C/C(=O)OC)cc2S1(=O)=O [KUC102268N]	25.3%	20.8%	27.1%	33.3%	27.9%
CC(C)CN1CCC(=O)N(CCC#N)CC1 [KUC102485N]	16.0%	23.1%	17.6%	19.0%	20.8%
O=C(O)c1cc(-c2ccc(-c3c(-c4ccco4)noc3-c3ccccc3)cc2)nc2ccccc12 [KUC102644N]	50.1%	58.4%	75.0%	89.4%	97.2%
O=S1(=O)CCOC[C@H](c2ccccc2)N1Cc1ccc(Cl)c(Cl)c1 [KUC102739N]	16.3%	16.2%	25.3%	35.0%	45.5%
O=C(NC1CCC(=O)N(CCSc2ccccc2)CC1)OCc1ccccc1 (stereo not shown) [KUC102830N]	16.9%	20.9%	21.9%	25.7%	38.2%
O=C1CCC[C@@H]2Cc3nc4ccc(O)cc4cc3[C@@H]3CCN1[C@H]23 [KUC103038N]	26.7%	35.2%	34.4%	47.9%	76.1%
C=CCN1CC[C@@H](O)C(=C)S1(=O)=O [KUC103094N]	19.8%	23.8%	19.2%	18.2%	18.0%
C[C@@H]1NC(=O)O[C@H]1c1ccco1 [KUC103195N]	23.8%	25.6%	28.1%	33.5%	23.9%
O=C1CS(=O)(=O)N(Cc2cccc(F)c2)c2ccc(Br)cc21 [KUC103319N]	32.5%	37.2%	49.0%	68.8%	81.7%
C[C@@H](NS(=O)(=O)c1cc(Cl)ccc1F)[C@H](O)c1ccccc1 [KUC103993N]	27.5%	31.8%	31.8%	34.5%	37.0%
COc1cc(C(C)=O)ccc1OCc1cn(CC(=O)c2ccc(O)cc2)nn1 [KUC104076N]	32.0%	44.9%	45.1%	61.1%	75.5%
